Results: US12673025B2, “Pegylated liposomes and uses thereof” (LT BIOPHARMA INC., priority 2024, dated 2026)
In brackets after ≈: the same amount, converted by molar mass. Like-named read-outs stand apart in the source and are kept apart here.

How the values were obtained:
[1] = system: Staphylococcus aureus (ATCC19636); test: MIC broth microdilution assay; type: cell-based
[2] = system: Pseudomonas aeruginosa ATCC 27853; test: MIC broth microdilution assay; type: cell-based; conditions: for MIC: ATCC27853; for antibacterial activity: Pseudomonas aeruginosa (ATCC278533)
Procedure: (§1) For the purpose of antimicrobial activity evaluation of liposome encapsulated nosiheptide, bacteria strain was cultivated in tryptic soy broth (Difco, Becton, Dickinson, Sparks, MD) or brain heart infusion broth (Difco, Becton, Dickinson, Sparks, MD) at 37° C. for 16˜18 hours to the stationary phase. After that, 1000 μl of inoculums were treated to 15 ml tryptic soy broth medium and incubated at 37° C. for 3˜4 hours. Bacteria counts were determined to 5×10^5 CFU/ml for antimicrobial activity via absorbance value of OD600 (1 OD600=1×10^8 CFU/ml) by spectrophotometer. (Ultraspec 2100 Pro, UV/Visible spectrophotometer, Biochrom, Massachusetts, USA)
(§2) The minimum inhibitory concentration values of peptides and liposome encapsulated peptides were evaluated by standard broth microdilution assay which was referred to the guideline of the Clinical and Laboratory Standards Institute (CLSI) (M27-A4., C.a.L.S.I.a.s.t.e.C.d., Reference method for broth dilution antifungal susceptibility testing of yeasts. Clinical and Laboratory Standards Institute, Wayne, PA., 2017). MIC assays were carried out with initial bacterial inoculum of 5×10^5 colony forming units (CFU/ml) in suitable medium. Peptides and liposome encapsulated peptides were added to polystyrene 96-well plates with serial dilution. Vancomycin-Resistant Staphylococcus aureus (VRSA01), Staphylococcus aureus (ATCC29213), Staphylococcus aureus (ATCC33591), Pseudomonas aeruginosa (ATCC278533) were cultivated in TSB broth. MICs was preliminarily defined as the lowest concentration of peptides which inhibited the 90% visible growth of bacteria.
(§3) The concentration-diluted peptide was treated 1 μl in 96-well plates. Subsequently, 99 μl medium which containing 5×10^5 CFU/ml bacteria inoculum were loaded individually in each wells, the serial-diluted concentration of peptide were from 8 to 0.0625 μg/ml. Evaluation of bacterial growth were performed by measuring the OD at 600 nm in a microplate reader (TECAN, Sunrise™) over 16 hours at 37° C. Medium-treated wells were used as the control, and all experiments were carried out in triplicate.

[3] = system: Staphylococcus aureus (ATCC29213); test: MIC broth microdilution assay; type: cell-based
Procedure: as §1, §2, §3

[4] = system: Staphylococcus aureus (ATCC33591); test: MIC broth microdilution assay; type: cell-based
Procedure: as §1, §2, §3

[5] = system: Vancomycin-Resistant Staphylococcus aureus (VRSA01); test: MIC broth microdilution assay; type: cell-based
Procedure: as §1, §2, §3

VRSA 01 = test: Time-kill analysis; type: cell-based, Staphylococcus aureus; conditions: ¼×MIC
Procedure: The antimicrobial activity of nosiheptide and nosiheptide liposome against VRSA 01 were assessed by time-kill analysis. VRSA 01 was cultured in TSB medium overnight. After that, fresh TSB was inoculated for growth to mid-logarithmic phase. Bacteria was added at starting inoculum of 5×10^9 CFU/ml. Nosiheptide and nosiheptide liposome were added to final concentrations with 1×MIC and ¼×MIC, the value of MICs were determined in previous experiments. Bacteria with only medium was regarded as the grown control. The cultures were incubated in 37° C. shaking incubator, and aliquots were removed from each tube at 1, 2, 4, 8, 24 hours and serially diluted for CFU enumeration on TSA plates. To compare rates of antibiotic killing, the decline of viable bacteria (Log10 CFU/ml) was evaluated at the measured time points. Experiments were repeated independently in triplicate. The lower limit of detection for the colony counts was 2 log10 CFU/ml.

A549 cells = test: MTT cell viability assay; type: cell-based; conditions: Homo sapiens, A549 lung cancer cells, 24 h
Procedure: (§4) The MTT assay was performed to determine cell viability. 5×10^3 cells per well with 100 μl cell medium were plated in 96-well plates, incubating for 24 hours. Then, the cell medium in plates was removed and each well was treated medium with free nosiheptide or liposome encapsulated nosiheptide in serial-diluted concentration from 3.125 to 50 μM. The medium with PBS buffer was regarded as the control group. After incubating 24 hours, the medium was removed and 100 μl medium-diluted 10% MTT was added in the 96 well plate. After incubation for 3 hours, the MTT solution was removed and the residual formazan crystal was dissolved with 100 μl DMSO (Dimethyl sulfoxide, Sigma Aldrich). The cell viability was determined by measuring the absorbance at 570 nm using ELISA Reader (TECAN, Sunrise™), and the data was calculated by the following formula: […]
(§5) The range of IC50 values was obtained by observing the curve, and all experiments were carried out in triplicate.

HFW cells = test: MTT cell viability assay; type: cell-based; conditions: HFW normal cells, 24 h
Procedure: as §4, §5

[6] = system: Staphylococcus aureus (ATCC33591); test: Murine model of i.v. S. aureus infection (survival); type: in vivo, mice; conditions: 20 mg/kg i.v. at 1 and 8 hours after infection
Procedure: Establishment of murine injection model of was assessed to test in vivo efficacy of nosiheptide liposome. Eight-week-old female ICR mice (LASCO, Taipei, Taiwan) were injected i.v. with 1×10^9 CFU/ml of Staphylococcus aureus (ATCC33591) strain in PBS buffer (pH=7.42).

## C=C(NC(=O)c1csc(-c2nc3c(cc2O)-c2nc(cs2)C(=O)NC(C(C)O)C(=O)N/C(=C\C)c2nc(cs2)C(=O)NC2CC(O)C(=O)OCc4cccc5[nH]c(c(C)c45)C(=O)SCC(NC(=O)c4csc2n4)c2nc-3cs2)n1)C(N)=O (stereo not shown) [Nosiheptide Free, Nosiheptide]
[1]
  antibacterial activity: no antibacterial activity
[1]; read-out: MIC
  MIC: > 8 µg/mL
[2]; Pseudomonas aeruginosa ATCC 27853, read-out: MIC
  MIC: > 8 µg/mL
[2]
  antibacterial activity: no antibacterial activity
[3]; read-out: MIC
  MIC: 0.125 µg/mL (≈ 0.102 µM)
[4]; read-out: MIC
  MIC: 0.0625 µg/mL (≈ 0.0511 µM)
[5]; Vancomycin Resistant Staphylococcus aureus 01, read-out: MIC
  MIC: 0.0625 µg/mL (≈ 0.0511 µM)
VRSA 01
  time to 2-log kill: 4 hours
A549 cells
  IC50: 26.2 ± 5.26 µM
HFW cells
  IC50: 28.3 ± 9.23 µM
[6]; end of study (7 days)
  survival rate: 62.5%
[6]; first two days
  mice died during the first two days: ⅜

## C=C(NC(=O)C(=C)NC(=O)c1csc(C2=N[C@@H]3c4csc(n4)[C@H]4NC(=O)c5csc(n5)[C@H]([C@](C)(O)[C@@H](C)O)NC(=O)[C@H]5CSC(=N5)/C(=C/C)NC(=O)[C@H]([C@@H](C)O)NC(=O)c5csc(n5)[C@]3(CC2)NC(=O)[C@H](C)NC(=O)C(=C)NC(=O)[C@H](C)NC(=O)[C@H]([C@@H](C)CC)N[C@@H]2C=Cc3c([C@H](C)O)cc(nc3[C@H]2O)C(=O)O[C@@H]4C)n1)C(N)=O [Thiostrepton Free, Thiostrepton]
[1]
  MIC: > 8 µg/mL
  antibacterial activity: no antibacterial activity
[2]
  antibacterial activity: no antibacterial activity
[2]; Pseudomonas aeruginosa
  MIC: > 8 µg/mL
[3]
  MIC: 0.625 µg/mL (≈ 0.375 µM)
[4]
  MIC: 0.625 µg/mL (≈ 0.375 µM)
[5]; Staphylococcus aureus
  MIC: 0.25 µg/mL (≈ 0.15 µM)
